Test results from ChEMBL document CHEMBL5244218, “Quinolone derivatives and their activities against methicillin-resistant Staphylococcus aureus (MRSA)” (Eur J Med Chem, 2018).
Values after ≈ are worked out from the molar mass of the structure shown.

Experiments:
[1] = tested on: Staphylococcus aureus; test: Antimicrobial activity against methicillin-resistant Staphylococcus aureus assessed as inhibition of microbial growth at 15.63 ug/ml relative to control; format: functional; parameters: scale not given: the % may be the effect or the level left; conditions: dose 15.63 µg/ml
[2] = Permeability coefficient of compound; format: ADME; conditions: not told; read-out: Kp (converted)
[3] = tested on: Staphylococcus aureus; test: Antimicrobial activity against methicillin-resistant Staphylococcus aureus assessed as inhibition of bacterial growth by agar dilution method; format: functional
[4] = tested on: Staphylococcus aureus; test: Antibacterial activity against methicillin-resistant Staphylococcus aureus infected in mouse model assessed as reduction in log10CFU in lungs (reference value: 8.47 log10CFU); format: functional
[5] = tested on: Staphylococcus aureus; test: Antimicrobial activity against methicillin-resistant Staphylococcus aureus MR101 Mu50 measured after 18 hrs by microplate dilution method; format: functional
[6] = tested on: Staphylococcus aureus; test: Antibacterial activity against methicillin-resistant Staphylococcus aureus infected in mouse model assessed as increase in survival rate relative to control; format: functional
[7] = tested on: Staphylococcus aureus; test: Antimicrobial activity against fluoroquinolone-resistant Staphylococcus aureus assessed as inhibition of bacterial growth at 0.5 ug/ml relative to control; format: functional; parameters: scale not given: the % may be the effect or the level left; conditions: dose 0.5 µg/ml
[8] = tested on: Staphylococcus aureus; test: Antimicrobial activity against methicillin-resistant Staphylococcus aureus assessed as inhibition of bacterial growth at 0.5 ug/ml relative to control; format: functional; parameters: scale not given: the % may be the effect or the level left; conditions: dose 0.5 µg/ml
[9] = tested on: Staphylococcus aureus; test: Antimicrobial activity against methicillin-resistant Staphylococcus aureus; format: functional, organism-based
[10] = Cytotoxicity against African green monkey Vero cells; format: toxicity, cell-based; conditions: chlorocebus sabaeus
[11] = tested on: Staphylococcus aureus; test: Antimicrobial activity against hospital acquired methicillin-resistant Staphylococcus aureus incubated for 24 hrs by CLSI protocol based method; format: functional
[12] = tested on: Staphylococcus aureus; test: Antimicrobial activity against community acquired methicillin-resistant Staphylococcus aureus incubated for 24 hrs by CLSI protocol based method; format: functional

Structure (SMILES)	Activity [1] [%]	Papp [2] [×10⁻⁶ cm/s]	Activity [4] [log10CFU]	Activity [6] [%]	also measured
COC(=O)c1cn(C2CC2)c2cc(N3CCNCC3)ccc2c1=O	80	0.00797			
C[C@H]1CCc2c(N3CCC(O)CC3)c(F)cc3c(=O)c(C(=O)O)cn1c23.N=C(N)NCCC[C@H](N)C(=O)O.O.O.O.O					MIC [3]: 1 µg/mL
Cc1c(N2C[C@@H](F)[C@@H](C3(C)CC3)C2)c(F)c(N)c2c(=O)c(C(=O)O)cn([C@@H]3C[C@@H]3F)c12			6.33	90	MIC [5]: 0.125 µg/mL (≈ 0.287 µM)
CCCOC(=O)c1cn(C2CC2)c2cc(N3CCNCC3)ccc2c1=O	80	0.195			
COc1c(N2CC[C@@H](C3(C)CC3)C2)c(F)cc2c(=O)c(C(=O)O)cn([C@@H]3C[C@@H]3F)c12					Activity [7]: 90%; Activity [8]: 90%
CN[C@H](CC(C)C)C(=O)N[C@H]1C(=O)N[C@@H](CC(N)=O)C(=O)N[C@H]2C(=O)N[C@H]3C(=O)N[C@H](C(=O)N[C@H](C(=O)O)c4cc(O)cc(O)c4-c4cc3ccc4O)[C@H](O)c3ccc(c(Cl)c3)Oc3cc2cc(c3O[C@@H]2O[C@H](CO)[C@@H](O)[C@H](O)[C@H]2O[C@H]2C[C@](C)(N)[C@H](O)[C@H](C)O2)Oc2ccc(cc2Cl)[C@H]1O [VANCOMYCIN]			7.99	45	
CO/N=C1\CCN(c2nc3c(cc2F)c(=O)c(C(=O)O)cn3C2CC2)CC1(C)CN (stereo unspecified)					MIC [9]: 8 µg/mL (≈ 19.2 µM); CC50 [10]: 177 µg/mL (≈ 423 µM)
CCOC(=O)c1cn(C2CC2)c2cc(N3CCNCC3)ccc2c1=O	80	0.106			
Cc1c(N2CC(NC(C)C)C2)c(F)cc2c(=O)c(C(=O)O)cn(-c3nc(N)c(F)cc3F)c12					MIC90 [11]: 0.06 µg/mL (≈ 0.13 µM); MIC90 [12]: 0.06 µg/mL (≈ 0.13 µM)
CC(=O)N[C@@H]1[C@H](Oc2c3cc4cc2Oc2ccc(cc2Cl)[C@@H](O[C@@H]2O[C@@H](CO)[C@@H](O)[C@H](O)[C@@H]2NC(C)=O)[C@@H]2NC(=O)[C@H](NC(=O)[C@@H]4NC(=O)[C@H]4NC(=O)[C@@H](Cc5ccc(c(Cl)c5)O3)NC(=O)[C@H](N)c3ccc(O)c(c3)Oc3cc(O)cc4c3)c3ccc(O)c(c3)-c3c(O[C@H]4O[C@H](CO)[C@@H](O)[C@@H](O)[C@@H]4O)cc(O)cc3[C@@H](C(=O)O)NC2=O)O[C@@H](CO)[C@@H](O)[C@@H]1O			7.36	45	MIC [5]: 0.5 µg/mL (≈ 0.283 µM)
